Data from PMC10235067, “Increased renal elimination of endogenous and synthetic pyrimidine nucleosides in concentrative nucleoside transporter 1 deficient mice” (Nature Communications, 2023).
Several values for one entry are separate records, joined by “and”; a condition that tells them apart may be missing. Identical values can stand only once.

Experiments:
[1] = Gemcitabine urine pharmacokinetics (renal excretion) in Slc28a1+/+ and Slc28a1-/- mice; conditions: Figure 5 G, H, I, individual mice; for concentration at 5 min / concentration at 10 min / concentration at 15 min / concentration at 30 min / concentration at 60 min / concentration at 120 min / concentration at 240 min: mouse, urine, intravenous, 50 mg/kg, Cp (dFdU)
Procedure: THU was added to the mouse urine samples upon collection and frozen until analysis. […] Five microliters of the diluted samples were transferred to a 96-well autosampler plate then 10 µL of internal standard mixture was added and mixed. […] The plate was then transferred to the 4 °C autosampler for analysis.
The chromatographic separation was performed on a Thermo Accucore aQ 2.6 µm, 100 ×2.1 mm column at 30 °C using a gradient with a 10 µL injection volume. The mobiles phases were 1 mM ammonium acetate in deionized water pH 6.8 and acetonitrile. The total run time was 5.5 min. […] The LC–MS/MS analysis was conducted on a Thermo Vanquish UHPLC with a TSQ Quantiva mass spectrometer equipped with an electrospray ionization source.

[2] = cited from earlier work
[3] = Gemcitabine plasma pharmacokinetics in Slc28a1+/+ and Slc28a1-/- mice
[4] = dFdU in plasma, KO mice, iv gemcitabine 50mg/kg, per mouse

## O=c1ccn([C@@H]2O[C@H](CO)[C@@H](O)C2(F)F)c(=O)[nH]1 [dFdU, 2′,2′-difluorodeoxyuridine]
[1]; KO mice, 5 Minutes
  Cp (dFdU): 317.288 ng/mL and 341.288 ng/mL and 338.288 ng/mL and 263.288 ng/mL
  concentration at 5 min: 344 ng/mL
[1]; KO mice, 10 Minutes
  Cp (dFdU): 227.479 ng/mL and 269.479 ng/mL and 242.479 ng/mL and 273.479 ng/mL and 275.479 ng/mL
  concentration at 10 min: 239 ng/mL
[1]; KO mice, 15 Minutes
  Cp (dFdU): 331.541 ng/mL and 373.541 ng/mL and 346.541 ng/mL and 377.541 ng/mL and 379.541 ng/mL
  concentration at 15 min: 344 ng/mL
[1]; KO mice, 30 Minutes
  Cp (dFdU): 322.048 ng/mL and 364.048 ng/mL and 337.048 ng/mL and 368.048 ng/mL and 370.048 ng/mL
  concentration at 30 min: 334 ng/mL
[1]; KO mice, 60 Minutes
  Cp (dFdU): 338.37 ng/mL and 380.37 ng/mL and 353.37 ng/mL and 384.37 ng/mL and 386.37 ng/mL
  concentration at 60 min: 350 ng/mL
[1]; KO mice, 120 Minutes
  Cp (dFdU): 342.398 ng/mL and 384.398 ng/mL and 357.398 ng/mL and 388.398 ng/mL and 390.398 ng/mL
  concentration at 120 min: 354 ng/mL
[1]; KO mice, 240 Minutes
  Cp (dFdU): 359.089 ng/mL and 401.089 ng/mL and 374.089 ng/mL and 405.089 ng/mL and 407.089 ng/mL
  concentration at 240 min: 371 ng/mL
[1]; WT mice, 5 Minutes
  Cp (dFdU): 390.036 ng/mL and 363.036 ng/mL and 387.036 ng/mL and 384.036 ng/mL and 309.036 ng/mL
  concentration at 5 min: 328 ng/mL
[1]; WT mice, 10 Minutes
  Cp (dFdU): 317.618 ng/mL and 359.618 ng/mL and 332.618 ng/mL and 363.618 ng/mL and 365.618 ng/mL
  concentration at 10 min: 330 ng/mL
[1]; WT mice, 15 Minutes
  Cp (dFdU): 319.343 ng/mL and 361.343 ng/mL and 334.343 ng/mL and 365.343 ng/mL and 367.343 ng/mL
  concentration at 15 min: 331 ng/mL
[1]; WT mice, 30 Minutes
  Cp (dFdU): 316.265 ng/mL and 358.265 ng/mL and 331.265 ng/mL and 362.265 ng/mL and 364.265 ng/mL
  concentration at 30 min: 328 ng/mL
[1]; WT mice, 60 Minutes
  Cp (dFdU): 316.849 ng/mL and 358.849 ng/mL and 331.849 ng/mL and 362.849 ng/mL and 364.849 ng/mL
  concentration at 60 min: 329 ng/mL
[1]; WT mice, 120 Minutes
  Cp (dFdU): 320.376 ng/mL and 362.376 ng/mL and 335.376 ng/mL and 366.376 ng/mL and 368.376 ng/mL
  concentration at 120 min: 332 ng/mL
[1]; WT mice, 240 Minutes
  Cp (dFdU): 471.043 ng/mL and 459.043 ng/mL and 432.043 ng/mL and 463.043 ng/mL and 465.043 ng/mL
  concentration at 240 min: 429 ng/mL
[2]
  half-life: ~ 26 h
[3]; Slc28a1-/- mice, plasma, single i.v. dFdC 50 mg/kg
  AUC (Last): 1453.8 ± 31.9 ng x min/mL
[3]; [4]
  AUCINF_D_obs: 145.293 kg·ng·min/mL/mg and 247.451 kg·ng·min/mL/mg and 151.268 kg·ng·min/mL/mg
  AUCINF_D_pred: 145.176 kg·ng·min/mL/mg and 248.596 kg·ng·min/mL/mg and 151.889 kg·ng·min/mL/mg
  AUCINF_obs: 12372.5 ng·min/mL and 7563.4 ng·min/mL
  AUCINF_pred: 12429.8 ng·min/mL and 7594.45 ng·min/mL
  AUC_%Back_Ext_obs: 27.8053% and 16.048% and 18.9747%
  AUC_%Back_Ext_pred: 27.8277% and 15.9741% and 18.8972%
  AUC_%Extrap_obs: 3.511% and 11.2661% and 5.257%
  AUC_%Extrap_pred: 3.433% and 11.6749% and 5.644%
  AUCall: 7482.64 ng·min/mL and 12659.7 ng·min/mL and 8852.13 ng·min/mL and 5047.42 ng·min/mL and 7806.56 ng·min/mL and 6947.11 ng·min/mL
  AUClast: 7009.6 ng·min/mL and 10978.6 ng·min/mL and 5995.89 ng·min/mL and 3337.67 ng·min/mL and 7165.79 ng·min/mL and 6415.86 ng·min/mL
  AUClast_D: 140.192 kg·ng·min/mL/mg and 219.572 kg·ng·min/mL/mg and 119.918 kg·ng·min/mL/mg and 66.7534 kg·ng·min/mL/mg and 143.316 kg·ng·min/mL/mg and 128.317 kg·ng·min/mL/mg
  AUMCINF_obs: 73315.1 min*min*ng/mL and 188787 min*min*ng/mL and 94928.9 min*min*ng/mL
  AUMCINF_pred: 73092.7 min*min*ng/mL and 191216 min*min*ng/mL and 96149.2 min*min*ng/mL
  AUMC_%Extrap_obs: 13.2491% and 31.3337% and 16.4642%
  AUMC_%Extrap_pred: 12.9851% and 32.2062% and 17.5245%
  AUMClast: 63601.5 min*min*ng/mL and 129633 min*min*ng/mL and 47032.5 min*min*ng/mL and 25446 min*min*ng/mL and 79299.6 min*min*ng/mL and 72737 min*min*ng/mL
  Cl_pred: 413.291 L/h/kg and 241.36 L/h/kg and 395.026 L/h/kg
  Clast: 31.5362 ng/mL and 112.074 ng/mL and 380.831 ng/mL and 227.966 ng/mL and 42.718 ng/mL and 35.4167 ng/mL
  Clast_pred: 30.8142 ng/mL and 116.678 ng/mL and 46.0533 ng/mL
  Cmax: 399.844 ng/mL and 516.311 ng/mL and 478.159 ng/mL and 230.143 ng/mL and 315.127 ng/mL and 303.44 ng/mL
  Cmax_D: 7.997 kg·ng/mL/mg and 10.3262 kg·ng/mL/mg and 9.563 kg·ng/mL/mg and 4.603 kg·ng/mL/mg and 6.303 kg·ng/mL/mg and 6.069 kg·ng/mL/mg
  HL_Lambda_z: 5.606 min and 8.621 min and 6.452 min
  Lambda_z: 0.0804 min⁻¹ and 0.1074 min⁻¹
  MRTINF_obs: 15.2585 min and 12.5511 min
  MRTINF_pred: 15.3837 min and 12.6605 min
  MRTlast: 11.8078 min and 7.844 min and 7.624 min and 11.0664 min and 11.3371 min
  Tlast: 30 min and 15 min
